The IC50 is the concentration at which inhibition is half-maximal.

The results in this text go back to patent US20260001849A1, “NOVEL B0AT1 INHIBITOR” (MITSUBISHI TANABE PHARMA CORPORATION, priority 2023, published 2026).

Assay [1] has as its target T1, hERG channel (Homo sapiens, UniProt Q12809).
T1 construct: host or cells: CHO cells
In words: hERG channel inhibitory activity, whole-cell patch clamp (auto-patch clamp system). The assay is classed as cell-based. The method, then:
Evaluation of hERG (Human Ether-a-go-go Related Gene) Channel Inhibitory Activity
The hERG channel inhibitory activity of the compound of the present invention was measured using CHO cells (B′ SYS GmbH) forcibly expressing hERG channels involved in human rapidly active delayed rectifier potassium current (IKr) by the whole-cell patch clamp method using an auto-patch clamp system (SyncroPatch384PE).
Cell suspension, extracellular fluid, intracellular fluid, and measurement plate (NPC-384 plate) were placed in the auto-patch clamp system, and hERG current measurements were performed using the whole-cell patch clamp method. The voltage protocol was set to a holding potential of −80 mV, with a depolarizing pulse preceded by −90 mV (100 ms) and followed by −80 mV (100 ms).
The depolarizing pulse was […] (500 ms), and then the hERG peak current value obtained during the ramp phase was measured when the voltage was lowered to −80 mV over 100 ms. The protocol was applied at 5-second intervals for 5 minutes for each concentration.
SyncroPatch software (manufactured by Nanion) was used for data analysis. Four concentrations were applied incrementally for each test substance, and the average hERG Peak current value obtained from the last three stimuli of each applied concentration was used as the evaluation data. The IC50 value was calculated from the inhibition rate of the current at each concentration of each test substance relative to the pre-application value using Hill's equation (Hill equation) using the relevant software.
The same experiments were also performed using the example compounds described in WO 2023/145804 as comparative example compounds 1-4.
(Block of hERG is tested as a sign of cardiac risk.)

For assay [2], the target named is T2, Human BOAT1 (Homo sapiens, UniProt Q695T7).
T2 construct: expressed in transfected cells
T2 sequence (Q695T7 1-634): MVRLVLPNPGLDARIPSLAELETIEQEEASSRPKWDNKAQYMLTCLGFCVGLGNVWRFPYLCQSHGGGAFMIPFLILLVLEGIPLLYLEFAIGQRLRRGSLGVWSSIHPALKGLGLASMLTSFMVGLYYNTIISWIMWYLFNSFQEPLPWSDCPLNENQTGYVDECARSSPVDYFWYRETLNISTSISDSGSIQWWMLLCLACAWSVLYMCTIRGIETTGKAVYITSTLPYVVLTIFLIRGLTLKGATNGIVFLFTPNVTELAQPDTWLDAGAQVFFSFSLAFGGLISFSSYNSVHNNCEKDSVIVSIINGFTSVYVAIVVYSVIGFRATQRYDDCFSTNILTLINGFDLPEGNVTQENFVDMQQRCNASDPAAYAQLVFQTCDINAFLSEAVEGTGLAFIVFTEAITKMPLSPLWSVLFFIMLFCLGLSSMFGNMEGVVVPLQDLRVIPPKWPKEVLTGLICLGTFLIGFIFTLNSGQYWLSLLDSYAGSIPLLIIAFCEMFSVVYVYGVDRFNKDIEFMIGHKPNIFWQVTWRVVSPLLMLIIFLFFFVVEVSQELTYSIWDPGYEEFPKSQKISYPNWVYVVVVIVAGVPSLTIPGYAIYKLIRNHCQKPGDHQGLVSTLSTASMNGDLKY
In words: hBOAT1 inhibitory test (phenylalanine uptake). The assay is classed as cell-based. The conditions noted are these: Human BOAT1 stable expression CHO cells, phenylalanine 0.25 mM, read-out: hB0AT1 IC50. The protocol: A test compound dissolved in dimethyl sulfoxide (DMSO) was added to a 96 well plate for solid phase radioactivity measurement containing a scintillator at the bottom of the well (final concentration of DMSO 0.5%). DMSO alone as a control and DMSO containing N-(4-bromophenyl)-3,5-dichloro-2-hydroxybenzamide (final concentration […]) for the measurement of BOAT1 non-specific uptake were similarly added at 0.5 μL per well. Human BOAT1 stable expression CHO cells suspended in a buffer (buffer containing 96 mM sodium chloride, 2 mM potassium chloride, 1.8 mM calcium chloride, 1 mM magnesium chloride, 0.01% bovine serum albumin, and 10 mM 2-[4-(2-hydroxyethyl)-1-piperazinyl]ethanesulfonic acid) were added by 90 μL to 75000 cells/well. After standing at ordinary temperature for 30 min or longer, the cells were subjected to a phenylalanine uptake experiment. A buffer containing L-phenylalanine and [3,4,5-3H]-L-phenylalanine was added by 10 μL per well (final concentration of phenylalanine 0.25 mM), and the radioactivity of the plate bottom surface at ordinary temperature was measured with a scintillation counter over time, and the radioactivity value after 100 to 200 min was analyzed.

Where [3] appears, read: [3H]-L-phenylalanine uptake, radioactivity after 100 to 200 min.
[4] abbreviates: comparative example compounds of WO 2023/145804, read-out: hERG inhibition IC50.

Where two headings read alike, the source gives them in different places.

T1 sequence (Q12809 whole entry): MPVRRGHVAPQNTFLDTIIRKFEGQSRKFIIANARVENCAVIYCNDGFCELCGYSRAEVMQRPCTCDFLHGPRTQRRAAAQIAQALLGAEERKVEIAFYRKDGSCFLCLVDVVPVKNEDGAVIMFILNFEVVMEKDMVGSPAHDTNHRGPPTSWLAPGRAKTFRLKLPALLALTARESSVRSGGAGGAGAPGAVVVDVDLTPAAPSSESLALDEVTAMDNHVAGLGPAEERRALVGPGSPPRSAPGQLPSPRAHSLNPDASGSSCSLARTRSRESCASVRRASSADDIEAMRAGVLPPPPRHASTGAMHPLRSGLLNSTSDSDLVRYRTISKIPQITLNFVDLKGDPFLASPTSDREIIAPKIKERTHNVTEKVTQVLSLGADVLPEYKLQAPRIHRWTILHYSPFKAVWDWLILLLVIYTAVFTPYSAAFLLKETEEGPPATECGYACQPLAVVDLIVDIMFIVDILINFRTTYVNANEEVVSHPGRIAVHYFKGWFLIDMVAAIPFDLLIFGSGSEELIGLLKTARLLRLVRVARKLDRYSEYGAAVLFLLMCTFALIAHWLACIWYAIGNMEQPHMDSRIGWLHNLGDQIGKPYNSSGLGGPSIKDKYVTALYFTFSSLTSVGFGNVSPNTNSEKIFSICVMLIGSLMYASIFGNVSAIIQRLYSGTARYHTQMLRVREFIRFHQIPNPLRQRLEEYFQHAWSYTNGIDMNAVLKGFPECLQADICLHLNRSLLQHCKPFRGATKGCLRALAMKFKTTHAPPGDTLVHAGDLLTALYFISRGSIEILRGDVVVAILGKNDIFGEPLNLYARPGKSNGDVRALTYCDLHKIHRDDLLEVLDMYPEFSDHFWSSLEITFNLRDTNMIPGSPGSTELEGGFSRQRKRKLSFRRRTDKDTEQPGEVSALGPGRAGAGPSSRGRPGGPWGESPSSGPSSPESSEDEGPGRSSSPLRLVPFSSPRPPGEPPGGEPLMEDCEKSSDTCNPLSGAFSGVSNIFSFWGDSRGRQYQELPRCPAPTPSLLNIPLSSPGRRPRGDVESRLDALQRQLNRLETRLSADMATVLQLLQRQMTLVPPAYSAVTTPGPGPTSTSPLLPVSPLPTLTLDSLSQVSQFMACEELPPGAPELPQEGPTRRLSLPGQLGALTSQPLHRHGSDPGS

`CC(C(=O)O)c1ccc2c(c1)CCN(C(=O)CNC(=O)/C=C/c1ccc(C(F)(F)F)cc1)C2` (racemic) [I-171]: the IC50 was more than 30 µM in assay [1] (read-out: hERG IC50) and 0.091 µM in assay [2] (setting [3]).
For `O=C(/C=C/c1ccc(C(F)(F)F)cc1)NCC(=O)N1CCc2cc([C@@H]3C[C@H]3C(=O)O)ccc2C1` (racemic) [I-172, (1R*,2R*)-2-[2-[2-[[(E)-3-[4-(trifluoromethyl)phenyl]prop-2-enoylamino]acetyl]-3,4-dihydro-1H-isoquinolin-6-yl]cyclopropanoic acid] the same measures were more than 30 µM and 0.155 µM.
For `O=C(O)CCCN1CCN(C(=O)CNC(=O)/C=C/c2ccc(C(F)(F)F)cc2F)C(c2cccc(Br)c2)C1` (racemic) [I-234, 4-[3-(3-bromophenyl)-4-[2-[[(E)-3-[2-fluoro-4-(trifluoromethyl)phenyl]prop-2-enoyl]amino]acetyl]piperazin-1-yl]butanoic acid] the same measures were more than 30 µM and 0.05 µM.
On the same counts, the results for `O=C(O)CCCN1CCN(C(=O)CNC(=O)/C=C/c2ccc(C(F)(F)F)cc2F)C(c2ccc(Cl)cc2)C1` (racemic) [I-236, 4-[3-(4-chlorophenyl)-4-[2-[[(E)-3-[2-fluoro-4-(trifluoromethyl)phenyl]prop-2-enoyl]amino]acetyl]piperazin-1-yl]butanoic acid] are more than 30 µM and 0.094 µM.
As to `CC(C(=O)O)c1ccc2c(c1)CCN(C(=O)CNC(=O)/C=C/c1ccc(C(F)(F)F)cc1)C2` (single isomer, unassigned) [I-286, 2-[2-[2-[[(E)-3-[4-(trifluoromethyl)phenyl]prop-2-enoyl]amino]acetyl]-3,4-dihydro-1H-isoquinolin-6-yl]propanoic acid], the IC50 in assay [1] (read-out: hERG IC50) was more than 30 µM; in assay [2] (phenylalanine uptake), 0.303 µM.
For `CC(C(=O)O)c1ccc2c(c1)CCN(C(=O)CNC(=O)/C=C/c1ccc(C(F)(F)F)cc1)C2` (single isomer, unassigned) [I-287, 2-[2-[2-[[(E)-3-[4-(trifluoromethyl)phenyl]prop-2-enoyl]amino]acetyl]-3,4-dihydro-1H-isoquinolin-6-yl]propanoic acid] the same measures were more than 30 µM and 0.178 µM.
On the same counts, the results for `O=C(/C=C/c1ccc(C(F)(F)F)cc1)NCC(=O)N1CCc2cc([C@@H]3C[C@H]3C(=O)O)ccc2C1` (single isomer, unassigned) [I-288, (1R*,2R*)-2-[2-[2-[[(E)-3-[4-(trifluoromethyl)phenyl]prop-2-enoyl]amino]acetyl]-3,4-dihydro-1H-isoquinolin-6-yl]cyclopropane-1-carboxylic acid] are more than 30 µM and 0.152 µM.
As for `O=C(/C=C/c1ccc(C(F)(F)F)cc1)NCC(=O)N1CCc2cc([C@@H]3C[C@H]3C(=O)O)ccc2C1` (single isomer, unassigned) [I-289, (1R*,2R*)-2-[2-[2-[[(E)-3-[4-(trifluoromethyl)phenyl]prop-2-enoyl]amino]acetyl]-3,4-dihydro-1H-isoquinolin-6-yl]cyclopropane-1-carboxylic acid], the results for the IC50 in assay [1] (read-out: hERG IC50) and in assay [2] (phenylalanine uptake) were more than 30 µM and 0.087 µM, respectively.
On the same counts, the results for `O=C(O)CCCN1CCN(C(=O)CNC(=O)/C=C/c2ccc(C(F)(F)F)cc2F)C(c2ccccc2)C1` (single isomer, unassigned) [I-290, 4-[4-[2-[[(E)-3-[2-fluoro-4-(trifluoromethyl)phenyl]prop-2-enoyl]amino]acetyl]-3-phenylpiperazin-1-yl]butanoic acid] are more than 30 µM and 0.119 µM.
Take `CN1CCN(C(=O)CNC(=O)/C=C/c2ccc(C(F)(F)F)cc2)C(c2ccccc2)C1` (stereo not shown) [Comparative Example compound 1, reference compound]: the IC50 in assay [1] (setting [4]) worked out at 2.09 µM.
Take `O=C(/C=C/c1ccc(C(F)(F)F)cc1)NCC(=O)N1CCNCC1` [Comparative Example compound 2, reference compound]: the IC50 in assay [1] (setting [4]) worked out at 8.72 µM.
On the same count and under the same terms, the figure for `CN1CCN(C(=O)CNC(=O)/C=C/c2ccc(C(F)(F)F)cc2)CC1` [Comparative Example compound 3, reference compound] is 3.63 µM; for `O=C(/C=C/c1ccc(C(F)(F)F)cc1)NCC(=O)N1CCc2ncsc2C1` [Comparative Example compound 4, reference compound] it is 5.96 µM.
Turning to `O=C(/C=C/c1ccc(C(F)(F)F)cc1)NCC(=O)N1CCc2cc(C3(C(=O)O)CC3)ccc2C1` [I-166], the IC50 in assay [1] (read-out: hERG IC50) is more than 30 µM.
Regarding `COc1cc2c(cc1CC(=O)O)CCN(C(=O)CNC(=O)/C=C/c1ccc(C(F)(F)F)cc1)C2` [I-176], the IC50 in assay [1] (read-out: hERG IC50) was more than 30 µM.
Same read-out and setting: the figure for `O=C(O)Cc1cc2c(s1)CCN(C(=O)CNC(=O)/C=C/c1ccc(C(F)(F)F)cc1)C2` [I-178] is more than 30 µM; for `O=C(O)CCCN1CCN(C(=O)CNC(=O)/C=C/c2ccc(C(F)(F)F)cc2F)CC1C(F)(F)F` (stereo not shown) [I-198] it is more than 30 µM.
Same read-out and setting: the same measure for `C[C@@H]1CN(CCCC(=O)O)[C@@H](C)CN1C(=O)CNC(=O)/C=C/c1ccc(C(F)(F)F)cc1F` [I-235]: more than 30 µM.
Consider `C[C@H]1CN(C(=O)CNC(=O)/C=C/c2ccc(C(F)(F)F)cc2F)[C@@H](c2ccccc2)CN1CCCC(=O)O` [I-252], for which, in assay [1] (read-out: hERG IC50), the IC50 was more than 30 µM.
As to `O=C(/C=C/c1ccc(C(F)(F)F)cc1F)NCC(=O)N1CCCC(c2ccccc2C(=O)O)C1` (stereo not shown) [I-253], the IC50 in assay [1] (read-out: hERG IC50) is 26.2 µM.
The same measure, in the same setting: the same measure for `O=C(O)CCCN1CCN(C(=O)CNC(=O)/C=C/c2ccc(C(F)(F)F)cc2F)C(c2ccc(Cl)c(F)c2)C1` (stereo not shown) [I-267]: more than 30 µM; for `O=C(O)CCCN1CCN(C(=O)CNC(=O)/C=C/c2ccc(C(F)(F)F)cc2F)CC1C1CCCCC1` (stereo not shown) [I-271]: 16.4 µM.
On to `C[C@@H]1CN(C(=O)CNC(=O)/C=C/c2ccc(C(F)(F)F)cc2F)[C@@H](c2ccccc2)CN1CCCc1nn[nH]n1` [I-379, (E)-3-[2-fluoro-4-(trifluoromethyl)phenyl]-N-[2-[(2S,5R)-4-[3-(1,2,3λ4,4-tetraazacyclopenta-2,4-dien-5-yl)propyl]-5-methyl-2-phenylpiperazin-1-yl]-2-oxoethyl]prop-2-enamide], for which the IC50 in assay [2] (setting [3]) was determined as 2.52 µM.
The same measure, in the same setting: the figure for `C[C@@H]1CN(C(=O)CNC(=O)/C=C/c2ccc(C(F)(F)F)cc2F)[C@@H](c2ccc(C3CC3)cc2)CN1CCC(=O)O` [I-382, 3-[(2R,5S)-5-(4-cyclopropylphenyl)-4-[2-[[(E)-3-[2-fluoro-4-(trifluoromethyl)phenyl]prop-2-enoyl]amino]acetyl]-2-methylpiperazin-1-yl]propanoic acid] is 0.063 µM.
Take `O=C(O)CCCN1C[C@H](c2ccccc2)N(C(=O)CNC(=O)/C=C/c2ccc(C(F)(F)F)cc2F)C[C@H]1C(F)(F)F` [I-399]: the IC50 in assay [2] (phenylalanine uptake) amounted to 2.89 µM.
As to `O=C(O)CCCN1CCN(C(=O)CNC(=O)/C=C/c2ccc(C(F)(F)F)cc2F)C(c2noc3ccccc23)C1` (stereo not shown) [I-400], in assay [2] (phenylalanine uptake), the IC50 came out at 0.292 µM.
Still for that read-out and setting: the figure for `O=C(O)CCCN1CCN(C(=O)CNC(=O)C=Cc2ccc(C(F)(F)F)cc2F)C(c2nc(-c3ccccc3)no2)C1` (stereo not shown) [I-402] is 0.235 µM.
Still for that read-out and setting: the same measure for `O=C(O)CCCN1CCN(C(=O)CNC(=O)/C=C/c2ccc(C(F)(F)F)cc2F)C(c2cccnc2)C1` (stereo not shown) [I-403]: 1.72 µM.
